Patent publication US11707434B2, “Method for preparing organic solvent-free lyophilized cyclophosphamide” (KOREA UNITED PHARM. INC., priority 2018, dated 2023)

Assay: Measurement of porosity (KOPTRI)
Type: physicochemical
Experimental: The porosity measurement was performed by the Korea Polymer Testing & Research Institute (KOPTRI), an accredited international testing agency, by requesting the samples prepared by the present applicant.

Question: What does the source list for `O=P1(N(CCCl)CCCl)NCCCO1` (stereo not drawn) [Comparison 2, 2-[bis(2-chloroethyl)amino]tetrahydro-2H-1,3,2-oxazaphosphorin-2-oxide]?
Answer: Apparent density: 1.31 g/mL; Porosity: 5.24%; Average diameter (pore size): 0.02 μm
